According to PMC7580722, “Design of new disubstituted imidazo[1,2-b]pyridazine derivatives as selective Haspin inhibitors. Synthesis, binding mode and anticancer biological evaluation” (Journal of Enzyme Inhibition and Medicinal Chemistry, 2020):
Where two headings read alike, the source gives them in different places.

Key:
HCT-116 cells xenografts = test system: HCT-116 cells xenografts; parameters: method as in PMID 21804608; details: nude mice xenografts of HCT-116 cells; cited from earlier work
HCT116 = assay: Cell viability, monolayer (2D), MTS assay; assay type: cell-based; details: Homo sapiens, HCT-116, 48 h
HsCdk2/Cyclin A = biological target: T1, HsCdk2/Cyclin A (Homo sapiens, UniProt P24941); assay: CDK2 kinase assay; assay type: biochemical
T1 construct: made in house; host or cells: baculovirus/Sf9 cells
Description: (§1) Values are IC50 expressed in µM and calculated from dose–response curves (each point on the curves was performed in triplicate). Selectivity indexes (SI; in brackets) are calculated as follows: SI = IC50 kinase X/IC50 Haspin. ND: not determined. *IC50 values obtained using the ADP-Glo methodology (see Experimental section, Supplementary Material). […]
(§2) A, HsCdk9/Cyclin T). Native SscCK1δ /ε and SscGSK3α/β were purified from pig brain whereas HsPlk1, HsCdk1 and HsAurora B were purchased from ProQinase and SignalChem respectively. Kinase assays were performed in […]
(§3) mCi/ml; PerkinElmer) in a final volume of 30 µl as previously reported 51. After 30 min incubation at 30°C, the reaction mix was spotted onto GE healthcare P81 phosphocellulose paper using a FilterMate Harvester (PerkinElmer), and the filter was extensively washed with a 1% phosphoric acid solution. The wet filter-bound radioactivity was determined in the presence of 20 µl scintillation fluid (GE healthcare) with a TopCount® Scintillation and Luminescence Counter (PerkinElmer). IC50 values were calculated from dose-response curves […]
(§4) Kinase activities using the ADP-Glo methodology (ADP-Glo Kinase Assay; Promega) were assayed according to the assay described in Nguyen et al. 52 and Ibrahim et al. 53. […]

HBL100 spheroids = assay: Spheroid (3D) viability, CellTiter-Glo; assay type: cell-based, human; details: 5 µM, Figure 4(A)
SH-SY5Y = assay: Cell viability, monolayer (2D), MTS assay; assay type: cell-based; details: Homo sapiens, 48 h
HsPLK1 = biological target: T2, HsPLK1 (Homo sapiens, UniProt P53350); assay: PLK1 kinase assay; assay type: biochemical; details: Table 4
T2 construct: purchased ProQinase
T2 sequence (P53350 whole entry): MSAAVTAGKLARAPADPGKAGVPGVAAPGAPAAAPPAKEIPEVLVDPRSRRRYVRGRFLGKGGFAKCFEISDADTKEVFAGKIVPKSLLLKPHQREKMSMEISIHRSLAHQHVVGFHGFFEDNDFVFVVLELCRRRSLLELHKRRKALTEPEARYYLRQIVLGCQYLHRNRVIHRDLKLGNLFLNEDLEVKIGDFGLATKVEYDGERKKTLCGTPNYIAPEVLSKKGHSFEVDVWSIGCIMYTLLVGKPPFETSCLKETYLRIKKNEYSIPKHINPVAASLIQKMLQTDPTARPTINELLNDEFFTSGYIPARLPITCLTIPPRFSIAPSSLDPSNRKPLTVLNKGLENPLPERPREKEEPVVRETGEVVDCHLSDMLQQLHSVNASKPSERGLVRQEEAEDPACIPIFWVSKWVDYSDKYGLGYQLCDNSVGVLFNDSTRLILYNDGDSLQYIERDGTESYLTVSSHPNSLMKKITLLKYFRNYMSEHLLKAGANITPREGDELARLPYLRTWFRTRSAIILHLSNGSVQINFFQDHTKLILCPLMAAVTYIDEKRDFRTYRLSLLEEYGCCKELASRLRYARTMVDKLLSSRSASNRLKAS
Description: . We therefore tested our compounds on two obvious candidates, HsCDK1 and HsPLK1 (Polo-like_kinase 1) both required for mitotic entry[50] (Table 4).
(§5) Values are IC50 expressed in µM and calculated from dose–response curves (each point from the curves was performed in duplicate). NR: not relevant. […]
(§6) Recombinant protein kinases were expressed and purified from E. coli (HsHaspin kinase domain aa470-798, HsCdk5/p25, RnDYRK1A kinase domain aa1-499, HsPIM1, MmCLK1) or baculovirus/Sf9 cells (HsCdk2/Cyclin A, HsCdk9/Cyclin T). Native SscCK1δ /ε and SscGSK3α/β were purified from pig brain whereas HsPlk1, HsCdk1 and HsAurora B were purchased from ProQinase and SignalChem respectively. Kinase assays were performed in specific buffers and substrates for each kinase tested in the presence of 15 µM [γ-33P] ATP (3,000 Ci/mmol, 10 mCi/ml; PerkinElmer) in a final volume of 30 µl as previously reported 51. After 30 min incubation at 30°C, the reaction mix was spotted onto GE healthcare P81 phosphocellulose paper using a FilterMate Harvester (PerkinElmer), and the filter was extensively washed with a 1% phosphoric acid solution. The wet filter-bound radioactivity was determined in the presence of 20 µl scintillation fluid (GE healthcare) with a TopCount® Scintillation and Luminescence Counter (PerkinElmer). IC50 values were calculated from dose-response curves

HCT116 spheroids = assay: Spheroid (3D) viability, CellTiter-Glo; assay type: cell-based, human; details: 5 µM, Figure 4(A)
U-2 OS = assay: Cell viability, monolayer (2D), MTS assay; assay type: cell-based; details: Homo sapiens, U2OS, 48 h
U-2 OS cells [1] = assay: Cell cycle analysis by flow cytometry (propidium iodide); details: for cells in S phase (% of cell total population): DMSO control 51.9%
Description: Figure 6. […] DNA content was measured by flow cytometry and representative profiles are shown. (B) quantification of the proportion of cells in each phase of the cell cycle from the experiment described in (A). Results are mean percentage (n = 3 independent experiments).
Cellular evaluation methods
All media were supplemented with 10% fetal calf serum (unless overwise specified) and 2 mM L-glutamine and cells were cultured
F68-pluronic acid. Cells were fixed for 2h in ice-cold ethanol, then washed twice in PBS containing 0.1% F68-pluronic acid, centrifuged at 200 g and resuspended in a PBS buffer containing 1% Triton, 100 µg/ml RNase A (Thermo Scientific) and 40 µg/ml propidium iodide (Life Technologies). DNA content was determined using a FACS Canto II (BD) and the data were analyzed using FCS Express Cytometry software (De Novo Software).
Twenty thousand events were collected in each run.

melanoma cancer lines = test system: melanoma cancer lines; parameters: method as in PMID 28928884; details: alone or in combination with Trametinib; cited from earlier work
RPE-1 = assay: Cell viability, monolayer (2D), MTS assay; assay type: cell-based; details: Homo sapiens, 48 h
U-2 OS spheroids = assay: Spheroid (3D) viability, CellTiter-Glo; assay type: cell-based, human; details: Homo sapiens, U2OS
HBL100 = assay: Cell viability, monolayer (2D), MTS assay; assay type: cell-based; details: Homo sapiens, HBL-100, 48 h
HsCDK1 = biological target: T3, HsCDK1 (Homo sapiens, UniProt P06493); assay: CDK1 kinase assay; assay type: biochemical
T3 construct: purchased ProQinase
T3 sequence (P06493 whole entry): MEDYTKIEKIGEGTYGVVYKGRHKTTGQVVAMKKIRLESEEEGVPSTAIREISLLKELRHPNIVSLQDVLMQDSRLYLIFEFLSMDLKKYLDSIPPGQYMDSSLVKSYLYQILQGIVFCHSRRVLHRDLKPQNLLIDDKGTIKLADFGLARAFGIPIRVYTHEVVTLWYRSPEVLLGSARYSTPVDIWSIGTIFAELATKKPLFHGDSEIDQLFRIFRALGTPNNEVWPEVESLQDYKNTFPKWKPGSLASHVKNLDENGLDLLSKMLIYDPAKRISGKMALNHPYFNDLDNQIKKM
T3 sequence (P14635 whole entry partner): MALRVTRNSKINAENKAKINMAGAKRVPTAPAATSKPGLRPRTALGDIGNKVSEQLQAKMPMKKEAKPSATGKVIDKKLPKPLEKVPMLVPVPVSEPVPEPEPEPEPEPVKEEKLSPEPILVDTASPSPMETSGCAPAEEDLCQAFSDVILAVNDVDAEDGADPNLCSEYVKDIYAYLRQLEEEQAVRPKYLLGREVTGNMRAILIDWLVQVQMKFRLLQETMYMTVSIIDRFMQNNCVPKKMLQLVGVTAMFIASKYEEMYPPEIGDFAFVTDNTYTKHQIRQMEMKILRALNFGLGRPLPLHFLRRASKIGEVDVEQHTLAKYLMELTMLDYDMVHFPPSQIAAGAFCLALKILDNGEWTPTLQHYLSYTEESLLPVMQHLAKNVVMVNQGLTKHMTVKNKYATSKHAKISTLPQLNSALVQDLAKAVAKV
Description: We therefore tested our compounds on two obvious candidates, HsCDK1 and HsPLK1 (Polo-like_kinase 1) both required for mitotic entry[50]
as §5, §6

[2] = test system: Haspin activity (H3T3ph) in U-2 OS cells; assay: In-cell Haspin activity, H3T3ph immunofluorescence; assay type: cell-based, human; details: 24 h; for H3T3ph signal remaining in prometaphase cells (% of ctrl): 0.5 µM; for inhibition at 0.05 µM: Homo sapiens, U2OS, read-out: inhibition of cellular Haspin activity
U-2 OS cells [3] = assay: Scratch wound cell migration assay (IncuCyte); assay type: cell-based, human; details: 0.6 µM, 0.5% FBS, normalised against DMSO control (100%)
HsHaspin = biological target: T4, HsHaspin (Homo sapiens, UniProt Q8TF76); assay: Recombinant Haspin kinase assay ([γ-33P]ATP, 15 µM ATP; some values ADP-Glo); assay type: biochemical; details: average selectivity index over the protein kinases tested vs Haspin
T4 construct: aa470-798; made in house; host or cells: E. coli
T4 sequence (Q8TF76 470-798): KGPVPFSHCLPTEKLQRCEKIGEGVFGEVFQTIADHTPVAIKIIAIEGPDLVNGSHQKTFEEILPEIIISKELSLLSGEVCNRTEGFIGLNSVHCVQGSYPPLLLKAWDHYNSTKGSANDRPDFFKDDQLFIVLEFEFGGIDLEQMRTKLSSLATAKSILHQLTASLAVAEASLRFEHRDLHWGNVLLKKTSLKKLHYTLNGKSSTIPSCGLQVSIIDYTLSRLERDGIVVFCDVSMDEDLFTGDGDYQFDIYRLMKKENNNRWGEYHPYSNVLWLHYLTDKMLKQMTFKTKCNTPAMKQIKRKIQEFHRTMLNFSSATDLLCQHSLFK
Description: as §1, §2, §3, §4

Haspin = biological target: T5, Haspin (Homo sapiens, UniProt Q8TF76); assay: ATP competition assay on Haspin kinase activity; assay type: biochemical
T5 construct: aa470-798; made in house; host or cells: E. coli
Description: We first conducted an ATP competition assay with compound 12 on Haspin kinase activity (Figure 3(A)). We tested an ATP concentration range from 5 to 240 µM on compound 12 concentrations ranging from 0.001 to 10 µm.
Figure 3. Binding mode of selected compounds with Haspin. (A) ATP competition assay with compound 12. (B) Crystal structure of Haspin with compound 12. […] (C) Superimposition of the binding mode of compounds 12 (yellow carbon atoms) and 21 (grey carbon atoms) in Haspin active site. The three-letter amino acid code and residue number are labelled next to each side chain.

HsAurora B = biological target: T6, HsAurora B (Homo sapiens, UniProt Q96GD4); assay: Aurora B kinase assay; assay type: biochemical
T6 construct: purchased SignalChem
T6 sequence (Q96GD4 whole entry): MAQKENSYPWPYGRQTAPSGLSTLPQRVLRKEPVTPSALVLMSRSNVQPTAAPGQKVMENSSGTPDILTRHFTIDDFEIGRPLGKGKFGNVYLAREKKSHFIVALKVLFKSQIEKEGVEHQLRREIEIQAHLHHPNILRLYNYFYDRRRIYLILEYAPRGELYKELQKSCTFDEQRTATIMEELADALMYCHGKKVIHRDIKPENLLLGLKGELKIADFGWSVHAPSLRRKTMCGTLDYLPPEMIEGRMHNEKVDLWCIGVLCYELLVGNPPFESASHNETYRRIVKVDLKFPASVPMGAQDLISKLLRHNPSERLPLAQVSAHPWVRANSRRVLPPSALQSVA
Description: as §1
as §6, with “curves […]” for “curves”
as §4

[4] = 48 h, 2 days, Figure 4(B), read-out: U-2 OS spheroid remaining viability

## CCCNc1ccc2ncc(-c3ccc4[nH]ncc4c3)n2n1 [Compound 5, reference compound]
HCT-116 cells xenografts
  effect on angiogenesis and tumour growth: reduced angiogenesis and tumour growth
HCT116
  EC50: 9 µM
HsCdk2/Cyclin A
  IC50: 0.091 µM
HBL100 spheroids; 48 h
  HBL-100 spheroid viability (% of DMSO control): without any significant effect
HBL100 spheroids; 10 days
  HBL100 spheroid viability: remained mostly unresponsive
SH-SY5Y
  EC50: > 10 µM
HsPLK1
  IC50: > 10 µM
HCT116 spheroids; 48 h
  HCT116 spheroid viability: without any significant effect
HCT116 spheroids; 10 days
  HCT116 spheroid viability: remained mostly unresponsive
U-2 OS
  EC50: 5.1 µM
U-2 OS cells [1]; 2.5 µM, 24 h, U-2 OS
  cells in S phase (% of cell total population): 30.9%
U-2 OS cells [1]; Figure 2
  cell cycle effect (in words): Cell cycle arrest in G2/M
Melanoma cancer lines
  effect on cell viability and mobility of melanoma lines: affects also cell viability and mobility of several melanoma cancer lines
RPE-1
  EC50: 3.8 µM
U-2 OS spheroids; [4]
  viability at 5 µM: 9.7%
U-2 OS spheroids; 240 h, 10 days, Figure 4(A), read-out: U-2 OS spheroid viability (% of DMSO control)
  viability at 5 µM: 1%
U-2 OS spheroids; 48 h, Figure 4(A), read-out: U-2 OS spheroid viability (% of DMSO control)
  viability at 5 µM: 49%
HBL100
  EC50: > 10 µM
HsCDK1
  IC50: 0.029 µM
[2]
  H3T3ph signal remaining in prometaphase cells (% of ctrl): 2.5%
  inhibition at 0.05 µM: > 80%

## CC[C@H](CO)Nc1ccc2ncc(-c3ccc4[nH]ncc4c3)n2n1 [Compound 12]
HCT116
  EC50: > 10 µM
HsCdk2/Cyclin A; read-out: IC50 CDK2
  IC50: 0.11 µM
U-2 OS cells [3]
  normalised wound closure after 24 h: 88%
HsHaspin
  average SI: 24.2
SH-SY5Y
  EC50: > 10 µM
Haspin; 5 µM ATP, read-out: IC50 Haspin at 5 µM ATP
  IC50: 0.006 µM
Haspin; 240 µM ATP, read-out: IC50 Haspin at 240 µM ATP
  IC50: 0.95 µM
HsPLK1
  IC50: > 10 µM
HsAurora B
  Aurora B inhibition (in words): did not inhibit Aurora B kinase
U-2 OS
  EC50: > 10 µM
U-2 OS cells [1]; 2.5 µM, 24 h, U-2 OS, DMSO control 12.8%
  cells in G2/M phase (% of cell total population): 29.9%
U-2 OS cells [1]; 2.5 µM, 24 h, U-2 OS
  cells in S phase (% of cell total population): 34.4%
RPE-1
  EC50: 6.8 µM
U-2 OS spheroids; [4]
  viability at 5 µM: 13.1%
U-2 OS spheroids; 240 h, 1 µM, 10 days, Figure 4(B), read-out: U-2 OS spheroid remaining viability
  viability at 1 µM: 66%
U-2 OS spheroids; 240 h, 2.5 µM, 10 days, Figure 4(B), read-out: U-2 OS spheroid remaining viability
  viability at 2.5 µM: 50%
HBL100
  EC50: 6.6 µM
HsCDK1; SI = IC50 CDK1/IC50 Haspin
  SI CDK1/Haspin: 0.8
HsCDK1; Table 4, read-out: IC50 HsCDK1
  IC50: 0.052 µM
[2]
  H3T3ph signal remaining in prometaphase cells (% of ctrl): 1.9%
  inhibition at 0.05 µM: > 80%
